Test in all cases: biochemical
Type in all cases: biochemical

In assay [1] the target is T1, 382 unique human kinases (Homo sapiens, UniProt O95747).
T1 construct: purchased Reaction Biology (HotSpot contract assay)
The settings on record: kinase OSR1/OXSR1, compound 10 uM; for remaining activity at 10 µM: read-out: % Enzyme Activity (relative to DMSO controls).

Assay [2] addresses T2, 382 unique human kinases (Homo sapiens, UniProt P00519, T315I).
T2 construct: purchased Reaction Biology (HotSpot contract assay)
Conditions: ABL1 (T315I), 10 uM; for remaining activity at 10 µM: read-out: % Enzyme Activity (relative to DMSO controls).

Assay [3] has as its target T3, 382 unique human kinases (Homo sapiens, UniProt P00533, L861Q).
T3 construct: purchased Reaction Biology (HotSpot contract assay)
Conditions: kinase EGFR (L861Q), compound 10 uM; for remaining activity at 10 µM: read-out: % Enzyme Activity (relative to DMSO controls).

In assay [4] the target is T4, 382 unique human kinases (Homo sapiens, UniProt P43403, Y319F).
T4 construct: purchased Reaction Biology (HotSpot contract assay)
T4 sequence (P43403 1-619 Y319F): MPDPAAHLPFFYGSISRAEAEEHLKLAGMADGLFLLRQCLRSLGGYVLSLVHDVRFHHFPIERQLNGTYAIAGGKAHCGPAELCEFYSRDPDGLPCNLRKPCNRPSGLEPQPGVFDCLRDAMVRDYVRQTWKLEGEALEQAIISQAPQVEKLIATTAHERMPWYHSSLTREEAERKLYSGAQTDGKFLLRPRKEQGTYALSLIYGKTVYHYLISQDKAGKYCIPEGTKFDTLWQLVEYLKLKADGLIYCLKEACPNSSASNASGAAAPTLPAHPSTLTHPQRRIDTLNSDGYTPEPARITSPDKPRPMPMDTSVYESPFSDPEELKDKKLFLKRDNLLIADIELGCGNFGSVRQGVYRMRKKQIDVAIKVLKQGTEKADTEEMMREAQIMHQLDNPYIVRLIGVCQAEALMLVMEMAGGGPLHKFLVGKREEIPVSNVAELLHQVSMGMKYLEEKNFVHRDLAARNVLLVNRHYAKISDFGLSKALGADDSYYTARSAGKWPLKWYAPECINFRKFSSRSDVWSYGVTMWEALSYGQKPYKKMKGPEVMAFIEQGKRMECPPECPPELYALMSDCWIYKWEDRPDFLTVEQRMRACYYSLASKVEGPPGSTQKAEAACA
Conditions: ZAP70 (Y319F), 10 uM; for remaining activity at 10 µM: read-out: % Enzyme Activity (relative to DMSO controls).

In assay [5] the target is T5, 382 unique human kinases (Homo sapiens, UniProt Q8TD08).
T5 construct: purchased Reaction Biology (HotSpot contract assay)
T5 sequence (Q8TD08 1-544): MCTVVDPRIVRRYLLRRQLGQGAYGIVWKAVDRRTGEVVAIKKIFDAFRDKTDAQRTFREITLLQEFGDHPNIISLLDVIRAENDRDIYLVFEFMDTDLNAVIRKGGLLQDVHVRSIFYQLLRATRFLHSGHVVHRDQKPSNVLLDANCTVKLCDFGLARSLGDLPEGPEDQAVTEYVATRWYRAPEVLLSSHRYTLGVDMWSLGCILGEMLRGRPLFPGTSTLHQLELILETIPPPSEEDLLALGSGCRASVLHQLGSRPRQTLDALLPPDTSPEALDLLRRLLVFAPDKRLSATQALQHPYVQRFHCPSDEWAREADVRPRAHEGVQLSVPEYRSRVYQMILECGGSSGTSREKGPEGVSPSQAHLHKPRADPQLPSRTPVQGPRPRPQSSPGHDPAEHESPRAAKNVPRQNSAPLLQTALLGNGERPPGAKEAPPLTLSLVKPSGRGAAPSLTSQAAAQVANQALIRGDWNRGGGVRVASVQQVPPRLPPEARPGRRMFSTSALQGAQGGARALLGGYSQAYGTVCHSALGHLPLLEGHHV
Conditions: kinase ERK7/MAPK15, compound 10 uM; for remaining activity at 10 µM: read-out: % Enzyme Activity (relative to DMSO controls).

The target in assay [6] is T6, 382 unique human kinases (Homo sapiens, UniProt Q8IVT5).
T6 construct: purchased Reaction Biology (HotSpot contract assay)
T6 sequence (Q8IVT5 1-923): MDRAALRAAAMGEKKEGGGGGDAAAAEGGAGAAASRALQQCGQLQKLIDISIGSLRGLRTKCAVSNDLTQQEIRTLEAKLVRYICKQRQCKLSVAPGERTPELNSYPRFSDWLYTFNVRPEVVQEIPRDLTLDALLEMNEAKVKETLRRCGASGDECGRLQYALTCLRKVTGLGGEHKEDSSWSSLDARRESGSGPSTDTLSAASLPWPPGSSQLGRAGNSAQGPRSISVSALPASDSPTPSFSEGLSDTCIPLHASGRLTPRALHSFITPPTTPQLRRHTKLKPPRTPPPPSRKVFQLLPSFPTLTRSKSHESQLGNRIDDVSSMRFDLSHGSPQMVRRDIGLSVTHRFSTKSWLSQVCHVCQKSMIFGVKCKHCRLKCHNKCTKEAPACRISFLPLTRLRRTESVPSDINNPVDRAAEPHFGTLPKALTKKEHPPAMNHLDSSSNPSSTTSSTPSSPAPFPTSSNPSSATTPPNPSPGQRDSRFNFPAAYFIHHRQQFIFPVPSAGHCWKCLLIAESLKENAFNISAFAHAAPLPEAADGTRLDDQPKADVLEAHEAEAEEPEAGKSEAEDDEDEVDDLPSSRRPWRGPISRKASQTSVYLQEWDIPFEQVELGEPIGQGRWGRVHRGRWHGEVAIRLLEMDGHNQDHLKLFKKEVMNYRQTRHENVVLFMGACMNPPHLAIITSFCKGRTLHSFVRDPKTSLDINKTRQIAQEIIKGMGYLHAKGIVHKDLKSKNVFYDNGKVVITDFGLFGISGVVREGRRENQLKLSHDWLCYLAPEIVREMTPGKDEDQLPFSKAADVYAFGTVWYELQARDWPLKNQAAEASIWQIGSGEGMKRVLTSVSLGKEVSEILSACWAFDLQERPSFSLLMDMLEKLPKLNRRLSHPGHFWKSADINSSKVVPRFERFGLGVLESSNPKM
The settings on record: KSR1, 10 uM; for remaining activity at 10 µM: read-out: % Enzyme Activity (relative to DMSO controls).

T1 sequence (O95747 whole entry): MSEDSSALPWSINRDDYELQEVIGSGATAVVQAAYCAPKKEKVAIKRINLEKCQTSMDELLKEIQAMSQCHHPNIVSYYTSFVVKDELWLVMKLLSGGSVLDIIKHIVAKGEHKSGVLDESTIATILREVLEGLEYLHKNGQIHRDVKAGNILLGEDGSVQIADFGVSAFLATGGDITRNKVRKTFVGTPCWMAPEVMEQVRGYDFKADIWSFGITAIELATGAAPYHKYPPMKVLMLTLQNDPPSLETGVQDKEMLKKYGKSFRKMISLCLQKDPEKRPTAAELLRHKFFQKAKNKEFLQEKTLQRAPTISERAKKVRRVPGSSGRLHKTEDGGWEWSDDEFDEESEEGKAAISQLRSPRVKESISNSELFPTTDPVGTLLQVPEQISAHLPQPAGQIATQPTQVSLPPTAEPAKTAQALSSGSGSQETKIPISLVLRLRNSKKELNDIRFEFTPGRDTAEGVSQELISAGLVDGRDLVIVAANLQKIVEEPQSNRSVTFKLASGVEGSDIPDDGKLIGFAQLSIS

For the molecule `CC(C)c1cc(-c2n[nH]c(=O)n2-c2ccc3c(ccn3C)c2)c(O)cc1O` [Ganetespib (STA9090)], the remaining activity at 10 µM turned out to be 82.7% on 382 unique human kinases [1]; 72.8% on 382 unique human kinases [2]; 90.9% on 382 unique human kinases [3]; 88.4% at 382 unique human kinases [4]; 84.8% at 382 unique human kinases [5].
For `CC(C)c1cc(-c2n[nH]c(=O)n2-c2ccc3c(ccn3C)c2)c(O)cc1O` [Ganetespib], the remaining activity at 10 µM at 382 unique human kinases [6] is 99.8%.
On to `CCNC(=O)c1noc(-c2cc(C(C)C)c(O)cc2O)c1-c1ccc(CN2CCOCC2)cc1` [Luminespib (AUY-922)], for which the “% Enzyme Activity (relative to DMSO controls)” value at 382 unique human kinases [1] stood at 102.56%; at 382 unique human kinases [2], 112.00%; on 382 unique human kinases [3] it was 100.91%; at 382 unique human kinases [4] it was 63.89%; on 382 unique human kinases [5], 97.45%. Moreover, the remaining activity at 10 µM at 382 unique human kinases [1] is 103%; on 382 unique human kinases [2] it was 114%; at 382 unique human kinases [3] it was 104%; at 382 unique human kinases [4] it was 68.9%; on 382 unique human kinases [5], 102%.
Consider `CCNC(=O)c1noc(-c2cc(C(C)C)c(O)cc2O)c1-c1ccc(CN2CCOCC2)cc1` [Luminespib], for which, on 382 unique human kinases [6], the “% Enzyme Activity (relative to DMSO controls)” value was found to be 97.63% and the remaining activity at 10 µM came to 98.8%.

(Values after publication PMC8550792, “Evolution of kinase polypharmacology across HSP90 drug discovery” (Cell Chemical Biology, 2021).)
